Among the data in patent publication US20220002279A1, “NOVEL IMIDAZOLE DERIVATIVE” (priority 2018, published 2022) are IC50 and MIC values, retold here.

SMILES strings stand for the structures. pIC50: −log10 of the molar value. ≈ marks a conversion by molar mass, not a printed value. Read-outs that look alike come from different tables or passages of the source.

In test [1] the target is T1, Escherichia coli LpxC enzyme (Escherichia coli, UniProt P0A725).
T1 construct: made in house; host or cells: Escherichia coli
T1 sequence (P0A725 1-305): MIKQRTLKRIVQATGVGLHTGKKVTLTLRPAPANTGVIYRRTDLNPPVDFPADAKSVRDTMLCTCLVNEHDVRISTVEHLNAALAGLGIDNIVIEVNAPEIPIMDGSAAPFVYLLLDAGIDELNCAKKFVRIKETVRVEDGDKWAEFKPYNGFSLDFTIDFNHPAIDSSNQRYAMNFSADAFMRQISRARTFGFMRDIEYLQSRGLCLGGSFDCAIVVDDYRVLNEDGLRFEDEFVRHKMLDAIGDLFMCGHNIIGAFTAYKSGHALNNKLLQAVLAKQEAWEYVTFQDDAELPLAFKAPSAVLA
In words: Inhibitory activity on Escherichia coli LpxC enzyme (fluorescamine method). In kind it is biochemical. The protocol: To assay the activity of Escherichia coli LpxC enzyme, LpxC was reacted with its substrate, UDP-3-O-(R-3-hydroxymyristoyl)-N-acetylglucosamine, and the amount of the reaction product was quantified by the amino groups present in the product
The reaction was terminated by the addition of 1.0 mg/mL-fluorescamine dissolved in a solvent obtained by mixing an equal amount of acetonitrile and dimethylformamide with the reaction mixture, and then, a 0.2 mol/L-sodium phosphate buffer solution (pH 8.0) was added thereto, and the amount of the reaction product was detected at an excitation wavelength/fluorescence wavelength=390 nm/495 nm. An inhibition curve was obtained by performing the aforementioned reaction in the presence of various concentrations of test compounds.

The subject of test [2] is Klebsiella pneumoniae strain ATCC13883. In words: Antimicrobial activity, MIC by broth microdilution. In kind it is cell-based. To be noted: read-out: MIC Klebsiella pneumoniae ATCC13883. The method in brief: (§1)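 MIC read by eye as the lowest drug level lacking visible growth after roughly 18 h at 35° C. Cells from heart infusion agar, set to McFarland 0.5 and diluted, were inoculated at about 5×10^5 CFU/mL into cation-adjusted Mueller-Hinton broth with compound, per adapted CLSI microdilution.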
Background: Broth dilution looks for growth in wells or tubes with falling amounts of substance.

In test [3] the test system is Pseudomonas aeruginosa strain ATCC27853. Kind of test: Antimicrobial activity, MIC by broth microdilution. In kind it is cell-based. To be noted: ATCC27853, 18 h, read-out: MIC Pseudomonas aeruginosa ATCC27853. In outline: as §1
Test [4] deals with Escherichia coli strain ATCC25922. In words: Antimicrobial activity, MIC by broth microdilution. In kind it is cell-based. The following applies: ATCC25922, 18 h, read-out: MIC Escherichia coli ATCC25922. The method in brief:
as §1

[5] abbreviates: fluorescamine detection, 3.1 nmol/L enzyme, 20 μmol/L substrate, pH 6.5, 120 min, read-out: IC50 (inhibitory activity on Escherichia coli LpxC enzyme, Fluoresamine method).
The mark [6] stands for this setting: ATCC13883, cation-adjusted Mueller-Hinton broth, about 5×10^5 CFU/mL, 35° C., about 18 hours.
Setting [7] is: cation-adjusted Mueller-Hinton broth, about 5×10^5 CFU/mL, 35° C., about 18 hours.

For the compound `C[C@H](O)c1nccn1Cc1cc(-c2ccc(C#CC3(N(C)C)CC3)cc2)on1` [Compound 50, (1S)-1-(1-{[5-(4-{[1-(dimethylamino)cyclopropyl]ethynyl}phenyl)-1,2-oxazol-3-yl]methyl}-1H-imidazol-2-yl)ethan-1-ol], the pIC50 (commonly −log10 of the IC50, conventionally taken in molar units) in test [1] (setting [5]) is 6.69. In addition, the results for the minimum inhibitory concentration (MIC) in test [2] (setting [6]), in test [3] (setting [7]) and in test [4] (setting [7]) were 4 µg/mL (≈ 10.6 µM), more than 128 µg/mL and 2 µg/mL (≈ 5.31 µM), respectively.

Turning to `C[C@H](O)c1nccn1Cc1cc(-c2ccc(C#C[C@@H]3[C@H]4CN(CC5COC5)C[C@@H]34)cc2)on1` [Compound 42, (1S)-1-[1-({5-[4-({(1R,5S,6s)-3-[(Oxetan-3-yl)methyl]-3-azabicyclo[3.1.0]hexan-6-yl}ethynyl)phenyl]-1,2-oxazol-3-yl}methyl)-1H-imidazol-2-yl]ethan-1-ol], the negative-log IC50 (pIC50) in test [1] (setting [5]) is 7.33. The MIC (as a rule, the smallest concentration in the dilution series that meets the test's criterion for growth inhibition) in test [2] (setting [6]) worked out at 0.5 µg/mL (≈ 1.12 µM); in test [3] (setting [7]) it was 16 µg/mL (≈ 36 µM); in test [4] (setting [7]) it was 0.25 µg/mL (≈ 0.562 µM).

For the compound `C[C@H](O)c1nccn1Cc1cc(-c2ccc(C#CC3CCN(C=O)CC3)cc2)on1` [Compound 127, 4-({4-[3-({2-[(1S)-1-hydroxyethyl]-1H-imidazol-1-yl}methyl)-1,2-oxazol-5-yl]phenyl}ethynyl)piperidine-1-carbaldehyde], in test [1] (setting [5]), the pIC50 is 7.22. For the same compound, the MIC in test [2] (setting [6]) was 2 µg/mL (≈ 4.94 µM); in test [3] (setting [7]) it was more than 64 µg/mL; in test [4] (setting [7]) it was 2 µg/mL (≈ 4.94 µM).

On to `C[C@H](O)c1nccn1Cc1cc(-c2ccc(C#CC3(C)CN(C)C3)cc2)on1` [Compound 35, (1S)-1-{1-[(5-{4-[(1,3-dimethylazetidin-3-yl)ethynyl]phenyl}-1,2-oxazol-3-yl)methyl]-1H-imidazol-2-yl}ethan-1-ol], for which the pIC50 in test [1] (setting [5]) was 6.09. Moreover, the MIC in test [2] (setting [6]) is 16 µg/mL (≈ 42.5 µM); in test [3] (setting [7]), more than 128 µg/mL; in test [4] (setting [7]), 4 µg/mL (≈ 10.6 µM).

Turning to `C[C@H](O)c1nccn1Cc1cc(-c2ccc(C#CC3CN(C(=O)OC(C)(C)C)C3)cc2)on1` [Compound 68, tert-butyl 3-({4-[3-({2-[(1S)-1-hydroxyethyl]-1H-imidazol-1-yl}methyl)-1,2-oxazol-5-yl]phenyl}ethynyl)azetidine-1-carboxylate], the pIC50 in test [1] (setting [5]) was 7.87. Also, the figures for the minimum inhibitory concentration (MIC) in test [2] (setting [6]), in test [3] (setting [7]) and in test [4] (setting [7]) were 4 µg/mL (≈ 8.92 µM), 32 µg/mL (≈ 71.3 µM) and 2 µg/mL (≈ 4.46 µM), respectively.

Take `CC(=O)N1C[C@@H]2[C@@H](C#Cc3ccc(-c4cc(Cn5ccnc5[C@H](C)O)on4)cc3)[C@@H]2C1` [Compound 86, 1-[(1R,5S,6s)-6-({4-[5-((2-[(1S)-1-hydroxyethyl]-1H-imidazol-1-yl}methyl)-1,2-oxazol-3-yl]phenyl}ethynyl)-3-azabicyclo[3.1.0]hexan-3-yl]ethan-1-one]: in test [1] (setting [5]), the pIC50 is 7.33. Also, the MIC in test [2] (setting [6]) was 1 µg/mL (≈ 2.4 µM); in test [3] (setting [7]), 32 µg/mL (≈ 76.8 µM); in test [4] (setting [7]) it was 1 µg/mL (≈ 2.4 µM).

In test [1], `CNC1(C#Cc2ccc(-c3cc(Cn4ccnc4[C@H](C)O)no3)cc2)CC1` [Compound 45, (1S)-1-(1-{[5-(4-{[1-(Methylamino)cyclopropyl]ethynyl}phenyl)-1,2-oxazol-3-yl]methyl}-1H-imidazol-2-yl)ethan-1-ol] had a negative-log IC50 (pIC50) of 6.57. Also, the minimum inhibitory concentration (MIC) in test [2] (setting [6]) came to 0.5 µg/mL (≈ 1.38 µM); in test [3] (setting [7]) it was 128 µg/mL (≈ 353 µM); in test [4] (setting [7]), 0.25 µg/mL (≈ 0.69 µM).

`COCC#Cc1ccc(-c2cc(Cn3ccnc3[C@H](C)O)no2)cc1` [Compound 53, (1S)-1-[l-((5-[4-(3-methoxyprop-1-yn-1-yl)phenyl]-1,2-oxazol-3-yl}methyl)-1H-imidazol-2-yl]ethan-1-ol]: in test [1] (setting [5]), the negative logarithm of the IC50 (pIC50) is 7.09. Besides, the results for the MIC in test [2] (setting [6]), in test [3] (setting [7]) and in test [4] (setting [7]) were 2 µg/mL (≈ 5.93 µM), more than 128 µg/mL and 4 µg/mL (≈ 11.9 µM), respectively.

For `C[C@H](O)c1nccn1Cc1cc(-c2ccc(C#CC3(C)COC3)cc2)on1` [Compound 47, (1S)-1-{1-[(5-{4-[(3-methyloxetan-3-yl)ethynyl]phenyl}-1,2-oxazol-3-yl)methyl]-1H-imidazol-2-yl} ethan-1-ol], in test [1] (setting [5]), the negative-log IC50 (pIC50) was 7.71. Moreover, the figures for the minimum inhibitory concentration (MIC) in test [2] (setting [6]), in test [3] (setting [7]) and in test [4] (setting [7]) were 1 µg/mL (≈ 2.75 µM), more than 128 µg/mL and 0.5 µg/mL (≈ 1.38 µM), respectively.

In the case of `C[C@H](O)c1nccn1Cc1cc(-c2ccc(C#C[C@@H]3[C@H]4CN(C=O)C[C@@H]34)cc2)on1` [Compound 73, (1R,5S,6s)-6-({4-[3-({2-[(1S)-1-Hydroxyethyl]-1H-imidazol-1-yl}methyl)-1,2-oxazol-5-yl]phenyl}ethynyl)-3-azabicyclo[3.1.0]hexane-3-carbaldehyde], in test [1] (setting [5]), the pIC50 was 7.41. Also, the MIC turned out to be 2 µg/mL (≈ 4.97 µM) in test [2] (setting [6]), 64 µg/mL (≈ 159 µM) in test [3] (setting [7]) and 1 µg/mL (≈ 2.48 µM) in test [4] (setting [7]).

For the compound `C[C@H](O)c1nccn1Cc1cc(-c2ccc(C#CC3CC(N(C)C)C3)cc2)on1` (stereo partly drawn) [Compound 97, (1S)-1-(i{[5-(4-{[3-(dimethylamino)cyclobutyl]ethynyl}phenyl)-1,2-oxazol-3-yl]methyl}-1H-imidazol-2-yl)ethan-1-ol], in test [1] (setting [5]), the negative-log IC50 (pIC50) is 7.00. In addition, the results for the minimum inhibitory concentration (MIC) in test [2] (setting [6]), in test [3] (setting [7]) and in test [4] (setting [7]) were 8 µg/mL (≈ 20.5 µM), 32 µg/mL (≈ 81.9 µM) and 4 µg/mL (≈ 10.2 µM), respectively.

In the case of `CC(=O)N1C[C@@H]2[C@@H](C#Cc3ccc(-c4cc(Cn5ccnc5[C@H](C)O)no4)cc3)[C@@H]2C1` [Compound 37, 1-[(1R,5S,6s)-6-({4-[3-({2-[(1S)-1-Hydroxyethyl]-1H-imidazol-1-yl}methyl)-1,2-oxazol-5-yl]phenyl}ethynyl)-3-azabicyclo[3.1.0]hexan-3-yl]ethan-1-one], in test [1] (setting [5]), the negative-log IC50 (pIC50) was 7.24. Besides, the MIC in test [2] (setting [6]) was 2 µg/mL (≈ 4.8 µM); in test [3] (setting [7]) it was 32 µg/mL (≈ 76.8 µM); in test [4] (setting [7]) it was 1 µg/mL (≈ 2.4 µM).

Consider `C[C@H](O)c1nccn1Cc1cc(-c2ccc(C#C[C@@H]3[C@H]4CN(C(=O)C(=O)N(C)C)C[C@@H]34)cc2)on1` [Compound 108, 2-[(1R,5S,6s)-6-((4-[3-((2-[(1S)-1-hydroxyethyl]-1H-imidazol-1-yl}methyl)-1,2-oxazol-5-yl]phenyl}ethynyl)-3-azabicyclo[3.1.0]hexan-3-yl]-N,N-dimethyl-2-oxoacetamide], for which the negative logarithm of the IC50 (pIC50) in test [1] (setting [5]) is 6.91. Further, the values for the MIC in test [2] (setting [6]), in test [3] (setting [7]) and in test [4] (setting [7]) were 4 µg/mL (≈ 8.45 µM), 16 µg/mL (≈ 33.8 µM) and 4 µg/mL (≈ 8.45 µM), respectively.

Regarding `COC(=O)N1C[C@@H]2[C@@H](C#Cc3ccc(-c4cc(Cn5ccnc5[C@H](C)O)no4)cc3)[C@@H]2C1` [Compound 78, Methyl (1R,5S,6s)-6-({4-[3-({2-[(1S)-1-hydroxyethyl]-1H-imidazol-1-yl}methyl)-1,2-oxazol-5-yl]phenyl}ethynyl)-3-azabicyclo[3.1.0]hexane-3-carboxylate], in test [1], the pIC50 is 7.86. The MIC in test [2] (ATCC13883, 18 h) is 0.5 µg/mL (≈ 1.16 µM); in test [3] it was 32 µg/mL (≈ 74 µM); in test [4] it was 0.5 µg/mL (≈ 1.16 µM).

For `CC(O)CN1C[C@@H]2[C@@H](C#Cc3ccc(-c4cc(Cn5ccnc5[C@H](C)O)on4)cc3)[C@@H]2C1` (stereo partly drawn) [Compound 121, 1-[(1R,5S,6s)-6-({4-[5-((2-[(1S)-1-hydroxyethyl]-1H-imidazol-1-yl}methyl)-1,2-oxazol-3-yl]phenyl}ethynyl)-3-azabicyclo[3.1.0]hexan-3-yl]propan-2-ol], in test [1] (setting [5]), the negative logarithm of the IC50 (pIC50) was 7.01. For the same compound, the MIC in test [2] (setting [6]) turned out to be 1 µg/mL (≈ 2.31 µM); in test [3] (setting [7]) it was 16 µg/mL (≈ 37 µM); in test [4] (setting [7]), 0.5 µg/mL (≈ 1.16 µM).
